Results: patent US5081242A, “6-benzoxazinyl- and 6-benzothiazinyl 2,3,4,5-tetrahydropyridazin-3-ones” (Ortho Pharmaceutical Corporation, priority 1991, dated 1992)

Assays:
[1] = system: adult mongrel dogs; assay: Cardiotonic activity in anesthetized dogs (myocardial contractile force, i.v.); type: in vivo; settings: Canis lupus familiaris, iv, vs pretreatment control, read-out: CF: Percent increase in cardiac force; for change in vivo at 0.47 mg/kg: i.v. dose 0.47 mpk; for change in vivo at 0.075 mg/kg: i.v. dose 0.075 mpk
Description: The cardiotonic activity of the compounds was determined in accordance with the method of Alousi, A. A., et al., J. Cir. Res. 45, 666 (1979). Basically, adult mongrel dogs were anesthetized with sodium pentobarbital and artificially respired. Arterial pressure was recorded via a femoral artery and the pressure pulse used to trigger a cardiotachometer for heart rate. Left ventricular pressure was measured with a Millar catheter and dP/dt was derived. Cardiac output was determined by measuring ascending aortic blood flow with an electromagnetic flow probe and myocardial contractile force was measured with a Walton Brodie strain gauge sutured to the right ventricle. Lead II EKG was also recorded. A standard does of dopamine was administered to assess myocardial responsiveness. Test compounds were administered by i.v. infusion or bolus administration and the effects on cardiovascular parameters were determined. Dose-related effects of the test compound on BP, HR, dP/dt max., C.F. and C.O. were compared to pretreatment control values and expressed as a percentage change.

[2] = target: cyclic nucleotide phosphodiesterase; assay: Phosphodiesterase inhibitory activity (cyclic AMP hydrolysis); type: biochemical; settings: read-out: IC50 (50% inhibition of cyclic nucleotide phosphodiesterase activity); cyclic AMP 0.10-1.0 μM, pH 7.4

SMILES: Cc1cc2c(cc1C1=NNC(=O)CC1)N(C)C(=O)CO2 [Example 29, 6-(3,4-Dihydro-4,7-dimethyl-3-oxo-1,4(2H)-benzoxazin-6-yl)-2,3,4,5-tetrahydropyridazin-3-one]
- change in vivo at 0.47 mg/kg [1]: 12%
- IC50 [2]: 56 µM

SMILES: CC1CC(=O)NN=C1c1ccc2c(c1)N(C(C)C)C(=O)C(C)O2 (centres unmarked) [Example 36, 6-(3,4-Dihydro-2-methyl-4-(1-methylethyl)-3-oxo-1,4(2H)-benzoxazin-6-yl)-2,3,4,5-tetrahydro-5-methylpyridazin-3-one]
- change in vivo at 0.47 mg/kg [1]: 40%
- IC50 [2]: 24 µM

SMILES: CC1CC(=O)NN=C1c1ccc2c(c1)N(C1CCCC1)C(=O)C(C)O2 (centres unmarked) [Example 37, 6-(3,4-Dihydro-4-cyclopentyl-2-methyl-3-oxo-1,4(2H)-benzoxazin-6-yl)-2,3,4,5-tetrahydro-5-methylpyridazin-3-one]
- change in vivo at 0.47 mg/kg [1]: 4%
- IC50 [2]: 8 µM

SMILES: Cc1cc2c(c(C3=NNC(=O)CC3)c1)OCC(=O)N2 [Example 38, 6-(3,4-Dihydro-6-methyl-3-oxo-1,4(2H)-benzoxazin-8-yl)-2,3,4,5-tetrahydropyridazin-3-one]
- change in vivo at 0.47 mg/kg [1]: 24%
- IC50 [2]: 31 µM

SMILES: Cc1cc(C2=NNC(=O)CC2)c2c(c1)N(C)C(=O)CO2 [Example 39, 6-(3,4-Dihydro-4,6-dimethyl-3-oxo-1,4(2H)-benzoxazin-8-yl)-2,3,4,5-tetrahydropyridazin-3-one]
- change in vivo at 0.47 mg/kg [1]: 18%
- IC50 [2]: 28 µM

SMILES: Cc1cc2c(c(C3=NNC(=O)CC3C)c1)OCC(=O)N2 (centres unmarked) [Example 40, 6-(3,4-Dihydro-6-methyl-3-oxo-1,4(2H)-benzoxazin-8-yl)-2,3,4,5-tetrahydro-5-methylpyridazin-3-one]
- change in vivo at 0.47 mg/kg [1]: 22%
- IC50 [2]: 26 µM

SMILES: Cc1cc(C2=NNC(=O)CC2C)c2c(c1)N(C)C(=O)CO2 (centres unmarked) [Example 41, 6-(3,4-Dihydro-4,6-dimethyl-3-oxo-1,4(2H)-benzoxazin-8-yl)-2,3,4,5-tetrahydro-5-methylpyridan-3-one]
- change in vivo at 0.47 mg/kg [1]: 60%
- IC50 [2]: 7 µM

SMILES: Cc1cc2c(cc1C1=NNC(=O)CC1)OCC(=O)N2C [Example 43, 6-(3,4-Dihydro-4,6-dimethyl-3-oxo-1,4(2H)-benzoxazin-7-yl)-2,3,4,5-tetrahydropyridazin-3-one]
- change in vivo at 0.47 mg/kg [1]: 104%
- IC50 [2]: 35 µM

SMILES: O=C1CCC(c2ccc3c(c2)NC(=O)CS3)=NN1 [Example 53, 6-(3,4-Dihydro-3-oxo-1,4[2H]-benzothiazin-6-yl)-2,3,4,5-tetrahydropyridazin-3-one]
- change in vivo at 0.075 mg/kg [1]: 21%
- IC50 [2]: 25 µM

SMILES: CN1C(=O)CSc2ccc(C3=NNC(=O)CC3)cc21 [Example 54, 6-(3,4-Dihydro-4-methyl-3-oxo-1,4[2H]-benzothiazin-6-yl)-2,3,4,5-tetrahydropyridazin-3-one]
- change in vivo at 0.075 mg/kg [1]: 11%
- IC50 [2]: 22 µM
